Laboratory results reported in patent publication US5489576A, “Therapeutic agent for hemorrhoidal diseases” (Senju Pharmaceutical Co., Ltd., priority 1993, dated 1996).
Where a name gives a salt, the structure may show the parent alone.

Key:
[1] = LD50 in rats (acute toxicity); details: rat, in vivo
From the text: Accordingly, it can be advantageously used for the treatment of hemorrhoidal diseases.

rectal mucosa = experiment: Rectal mucosa irritating action; assay type: in vivo, Male Wistar rats; details: intrarectal, 5 h; for Irritation potency, Index value: mean ± standard error (n = 6); for Irritation potency, Central value: score 0-4 of Table 1
Protocol: Rectal Mucosa Irritating Action of Compound (I)
The rectal mucosa irritating action of Compound (I) was examined as in the following.
1. Animals used: Male Wistar rats weighing 135-200 g
2. Test substance: EPC-K added to an oil-in-water type cream
The rats were fasted for 48 hours and the test substance was intrarectally administered. Five hours later, the rats were exsanguinated to death. The rectum was removed and the mucosa was visually observed. The condition of the mucosa was expressed in numerical units according to the evaluation standard shown in Table 1, and a central value and an average value were calculated, based on which the irritation by the test substance was classified according to the evaluation standard for irritation shown in Table 2.

rectal tissues = experiment: Wound healing accelerating effect on rectal tissues (hydroxyproline content); assay type: in vivo, Male Wistar rats; details: 1% EPC-K, average (n=5)
Protocol: Wound Healing Accelerating Effect of Compound (I) on Rectal Tissues
The wound healing accelerating effect of Compound (I) on rectal tissues was examined using the amount of hydroxyproline (Hyp) in tissue as an index.
1. Animals used: Male Wistar rats weighing 150-250 g
2. Test substance: EPC-K added to an oil-in-water cream to 1 w/w %
The rats were fasted for 24 hours and a narrow saw was inserted in the rectum. A wound was made by two reciprocations of the saw in the rectum. The test substance was injected in the rectum once a day by 100 μl beginning immediately after forming of the wound. The rats were exsanguinated to death at 4 hours, 1, 3, 6 or 9 days thereafter and the rectum was removed. The removed rectum was delipidized, shredded and dried. After acid hydrolysis, pH was adjusted and hydroxyproline content was measured by the chloramine T oxidation method.

[2] = system: recto-anal edema induced by a croton oil mixture; experiment: Suppressive effect on recto-anal edema induced by croton oil mixture; assay type: in vivo, Male Wistar rats; details: 4% EPC-K in petrolatum, 24 h, * p < 0.05 vs control
Protocol: Effects of Compound (I) on Models with Hemorrhoidal Disease Induced by Croton Oil Mixture
The suppressive effect of Compound (I) on recto-anal edema induced by a croton oil mixture was examined.
1. Animals used: Male Wistar rats weighing 140-250 g
2. Test substance: EPC-K added to petrolatum base material to 4 w/w %
Composition: distilled water:pyridine:diethyl ether:6% croton oil in diethyl ether solution=1:4:5:10
Preparation: Water and a small amount of diethyl ether were added to pyridine and mixed. Then, a 6% croton oil diethyl ether solution was added and the remaining diethyl ether was added thereto. The mixture was vigorously shaken.
A stype of a swab was impregnated with the croton oil mixture (160 μl) and the entire stype was inserted into the rectum for 10 seconds.
5. Determination of edema
The test substance was administered intrarectally immediately after the induction of inflammation, and the anus was sealed for 4 hours with a clip so as to prevent leaking out of the substance.
At 24 hours after the induction of inflammation, the rats were exsanguinated to death and the weight of the recto-anal part, cut out in 15 mm length from 5 mm from the circular hairline on annal epithelium, was measured. The recto-anal coefficient (RAC=Wra·Wb^-1 ·10^3) was calculated on the basis of the weight of the recto-anal part (Wra) and body weight (Wb) and used as an index of inflammation.

[3] = 0.2% EPC-K in oil-in-water cream

## Cc1c(C)c2c(c(C)c1OP(=O)(O)OC1=C(O)[C@@H]([C@@H](O)CO)OC1=O)CCC(C)(CCCC(C)CCCC(C)CCCC(C)C)O2 (mixture of isomers) [EPC-K, L-ascorbic acid DL-α-tocopheryl phosphate diester potassium salt]
[1]; intravenous injection to rats
  LD50: ≥ 100 mg/kg
[1]; oral administration to rats
  LD50: ≥ 5000 mg/kg
Rectal mucosa; [3]
  Irritation potency, Index value: 0.67 ± 0.42
  Irritation potency, Central value: 0
Rectal mucosa; 1% EPC-K in oil-in-water cream
  Irritation potency, Index value: 0.50 ± 0.34
  Irritation potency, Central value: 0
Rectal mucosa; 5% EPC-K in oil-in-water cream
  Irritation potency, Index value: 0.83 ± 0.54
  Irritation potency, Central value: 0
Rectal tissues; 4 hr later, control 19.67, normal rectum 22.26
  Hydroxyproline content in rectal tissues: 19.38 µg/mg
Rectal tissues; 1 day later, control 19.69, normal rectum 22.26
  Hydroxyproline content in rectal tissues: 21.70 µg/mg
Rectal tissues; 3 days later, control 23.46, normal rectum 22.26
  Hydroxyproline content in rectal tissues: 24.75 µg/mg
Rectal tissues; 6 days later, control 25.63, normal rectum 22.26
  Hydroxyproline content in rectal tissues: 25.22 µg/mg
Rectal tissues; 9 days later, control 27.38, normal rectum 22.26
  Hydroxyproline content in rectal tissues: 26.53 µg/mg
[2]
  Edema suppression: 19.5%
[2]; mean ± standard error (n = 10), control 2.36, untreated 0.67
  Recto-anal coefficient (RAC): 2.03 ± 0.07
